The subject of data set [1] is B16F10 cell graft. The data set is described as follows: Antibody-mediated CD8 T-cell depletion and Z36-MP5 treatment. The format is in vivo, mouse. Conditions: Z36-MP5 30 mg/kg, 200 µg anti-CD8.
The test system of data set [2] is B16F10 cell graft. The data set is described as follows: Syngeneic melanoma graft mouse model, tumor growth and survival.
Protocol: Mi-2β knockdown or Scramble B16F10 cells (1.5 × 10^5) were mixed with BD matrigel (Matrix Growth Factor Reduced) (BD, 354230) in 100 μl PBS, and then subcutaneously injected into the right flanks of C57BL/6 mice of 8–10 week old (from the Jackson Laboratory, 000664). Tumor growth was measured with calipers, and size was expressed in cubic centimeters every 3 days. For antibody treatment, control IgG (10 mg/kg) or anti-PD-1 (RMP1-14, BioXCell, 10 mg/kg) was injected intraperitoneally (i.p.) on day 6, 9, 12, 15 and 18 after tumor cell inoculation. For tumor growth curve, grafts were measured with calipers and established (0.5*length × width^2) every three days. For survival tests, mice were euthanized when the tumor size exceeded 1 cm^3. […] The mice were euthanized after indicated days or when the allowable endpoint size (1 cm^3) was reached.
Data set [3] in a line: Tolerability: mouse weight and organ histology. The format is in vivo. As to conditions: 30 mg/kg/day for 2 weeks. As for the experimental part:
Z36-MP5 was chosen for further validation and experimental therapeutics in vivo. […] To investigate its cellular inhibitory activity, B16F10 cells were treated with Z36-MP5 at concentrations ranging from 5 to 100 µM, and the activation of Mi-2β target genes measured by RT-qPCR. […] In addition, the pharmacokinetic properties of Z36-MP5 in Sprague-Dawley rats with administration of intraperitoneal injection dose of 1.0 mg/kg. […] To exclude any effects on the host cells, we implanted Mi-2β-null melanoma cells into C57BL6 mice and then treated the mice with Z36-MP5 accompanied by anti-PD-1 therapy.
(§1) Supplementary Figure 8. In vitro assay for Mi-2β inhibitors. a The body weight changes of C57BL/6J mice treated with Z36-MP5 (30 mg/kg/day) for 2 weeks. Data are mean ± SEM (n=5). b H&E staining of tissues in C57BL/6J mice treated with or without Z36 -MP5 (30 mg/kg/day) for 2 weeks. […]
(§2) The growth of tumor grafts was measured. n = 5. g Mice bearing B16F10 cell s were treated with MS177 (100 mg/kg, 5 days) and then Z36 -MP5 (30 mg/kg/day) or vehicles, accompanied with anti -PD-1 antibody […]

The nature of data set [4]: Estimated blood concentration in mice. The format is in vivo. As to conditions: intraperitoneal 30 mg per kg, extrapolated from rat. From the text:
FLT3 kinase inhibitor for acute myeloid leukemia with FLT3 mutations. J Med Chem, 61, 3855-3869 (2018); Lexian Tong et al., Identification of 2-aminopyrimidine derivatives as FLT3 kinase inhibitors with high selectivity over c-KIT. J Med Chem, 65, 3229-3248 (2022)). In these cases, the cellular form of the FLT3-WT or FLT3-ITD mutant was preferentially bound. Another example is paclitaxel, a microtubule-stabilizing agent that is widely used in cancer chemotherapy. Biochemical competitive […]
(Shubhada Sharma, et al., Dissecting paclitaxel–microtubule association: quantitative assessment of the 2’-OH group. Biochemistry, 52, 2328-2336 (2013)). Paclitaxel sensitizes BG-1 ovarian cancer cells to radiation at a dose that was not cytotoxic and […]
sensitizer: a flow cytometric study. Gynecol Oncol, 50, 89-93 (1993)).
Like the Mi-2β silencing by shMi-2β (Supplementary Fig. 3C), we observed substantial increases in expressions of Mi-2β target genes, Cxcl9 and Cxcl10, to similar levels after treatment of B16F10 cells with Z36-MP5 at concentrations 5 μM to 100 μM (Fig. 5F).
MP5 treatment would be sufficient for inhibiting Mi-2β in cells. Moreover, we observed a maintenance of blood concentration of 4 μM to 10 μM Z36-MP5 in rat for around 1 hour after the intraperitoneal injection at a dose of Z36-MP5 as low as 1 mg per kg […]

Data set [5] deals with T1, Mi-2β mutation (H727A) (Homo sapiens, UniProt Q14839, H727A).
T1 construct: made in house
T1 sequence (Q14839 whole entry H727A): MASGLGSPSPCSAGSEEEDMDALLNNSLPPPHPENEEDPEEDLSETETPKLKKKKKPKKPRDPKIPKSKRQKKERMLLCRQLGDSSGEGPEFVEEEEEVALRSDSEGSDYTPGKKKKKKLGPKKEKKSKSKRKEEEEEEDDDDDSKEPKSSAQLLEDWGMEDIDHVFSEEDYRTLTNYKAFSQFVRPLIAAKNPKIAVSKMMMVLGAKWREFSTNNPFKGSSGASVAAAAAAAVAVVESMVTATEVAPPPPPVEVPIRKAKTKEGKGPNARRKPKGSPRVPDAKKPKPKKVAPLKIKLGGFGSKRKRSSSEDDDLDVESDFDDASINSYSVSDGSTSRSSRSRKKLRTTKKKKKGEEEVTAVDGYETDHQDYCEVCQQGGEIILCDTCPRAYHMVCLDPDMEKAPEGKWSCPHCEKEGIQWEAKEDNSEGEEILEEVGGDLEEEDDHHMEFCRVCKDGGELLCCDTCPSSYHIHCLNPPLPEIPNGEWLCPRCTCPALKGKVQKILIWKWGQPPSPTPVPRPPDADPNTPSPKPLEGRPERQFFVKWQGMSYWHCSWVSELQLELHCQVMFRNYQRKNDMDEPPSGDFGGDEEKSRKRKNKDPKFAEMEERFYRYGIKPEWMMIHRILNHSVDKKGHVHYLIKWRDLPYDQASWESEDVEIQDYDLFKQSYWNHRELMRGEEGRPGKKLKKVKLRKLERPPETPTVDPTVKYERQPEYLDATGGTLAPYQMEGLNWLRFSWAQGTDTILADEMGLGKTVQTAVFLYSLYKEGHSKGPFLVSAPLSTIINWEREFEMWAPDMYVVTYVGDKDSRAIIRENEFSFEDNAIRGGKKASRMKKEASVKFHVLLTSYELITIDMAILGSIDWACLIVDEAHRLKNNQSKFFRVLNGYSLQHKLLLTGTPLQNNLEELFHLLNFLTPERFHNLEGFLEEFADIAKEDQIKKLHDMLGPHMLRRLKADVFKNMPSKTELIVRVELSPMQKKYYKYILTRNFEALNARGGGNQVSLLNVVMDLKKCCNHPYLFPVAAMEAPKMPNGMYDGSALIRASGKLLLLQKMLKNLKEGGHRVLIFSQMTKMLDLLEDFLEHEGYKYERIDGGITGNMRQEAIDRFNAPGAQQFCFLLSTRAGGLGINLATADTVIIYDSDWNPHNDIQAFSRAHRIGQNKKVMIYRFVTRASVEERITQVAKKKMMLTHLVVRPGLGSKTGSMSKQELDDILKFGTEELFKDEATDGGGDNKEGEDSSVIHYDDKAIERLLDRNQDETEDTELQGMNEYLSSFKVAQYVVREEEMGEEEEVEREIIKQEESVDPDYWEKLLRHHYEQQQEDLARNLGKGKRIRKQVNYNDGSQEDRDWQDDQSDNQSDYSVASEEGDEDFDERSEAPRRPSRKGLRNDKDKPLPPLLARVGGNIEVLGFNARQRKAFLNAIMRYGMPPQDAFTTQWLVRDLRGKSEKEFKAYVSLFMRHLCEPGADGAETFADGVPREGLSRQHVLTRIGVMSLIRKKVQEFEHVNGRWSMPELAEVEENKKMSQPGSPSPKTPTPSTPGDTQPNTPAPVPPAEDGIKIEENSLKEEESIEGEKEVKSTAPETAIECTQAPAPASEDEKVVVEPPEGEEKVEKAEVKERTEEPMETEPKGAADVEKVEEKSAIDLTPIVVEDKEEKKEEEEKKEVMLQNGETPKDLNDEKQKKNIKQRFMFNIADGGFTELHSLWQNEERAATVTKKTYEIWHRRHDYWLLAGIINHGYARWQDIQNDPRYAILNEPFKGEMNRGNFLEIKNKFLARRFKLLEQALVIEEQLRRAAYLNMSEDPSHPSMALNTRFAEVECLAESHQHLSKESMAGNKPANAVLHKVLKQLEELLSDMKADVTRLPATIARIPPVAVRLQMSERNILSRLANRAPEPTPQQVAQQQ
The data set is described as follows: FRET-based nucleosome repositioning assay with mutant Mi-2β. The format is biochemical. Conditions: ATP 1 mM, Z36-MP5 10 µM.
Protocol: based nucleosome repositioning assays were performed with different concentrations of Mi-2β and a non-
limiting ATP concentration (1 mM) for the indicated incubation time (n=3). c The ATP titration
(concentrations ranging from 0.1 to 300 µM) was performed with the FRET-based nucleosome
time. […] Values represent mean
based nucleosome repositioning assays.

Data set [6] deals with Pmel-1 T cells co cultured with tumor cells. The data set is described as follows: Pmel-1 T-cell killing of tumor cells. The format is cell-based, mouse. The protocol:
To test whether Z36-MP5 affects cell proliferation, cells were seeded into 96-well plates at a density of 1 × 10^3 cells/100 μl per well. CCK-8 was used to detect changes in proliferation ability after 3 days of treatment with Z36-MP5 (25 μM). To test whether Mi-2β expression in T cells or treatment of T cells with Z36-MP5 affects the ability of T cells to kill tumor cells, Mi-2β in Pmel-1 T cells was manipulated or Pmel-1 cells were exposed to Z36-MP5 (25 μM) for 24 hrs. The number of cells was quantified. One thousand Pmel-1 T cells were then co cultured with 1000 tumor cells for 24 hrs, and the number of tumor cells was counted.
as §1, §2

Data set [7] deals with 468 kinases. The data set is described as follows: KINOMEscan screening (DiscoveRx). The format is binding. As to conditions: 1000 nM.
For data set [8], the target named is ROCK2 (Homo sapiens, UniProt O75116). The data set is described as follows: biochemical. Further details: KINOMEscan active-site competition binding panel (468 kinase assays), per cent of control at 1000 nM. As to conditions: KINOMEscan per cent of control (binding competition); read-out: Percent Control. An excerpt: (§3) Figure S7 / Percent Control
The target in data set [9] is HIPK3 (Homo sapiens, UniProt Q9H422). The data set is described as follows: biochemical. As to conditions: KINOMEscan per cent of control (binding competition); read-out: Percent Control. Further details: KINOMEscan active-site competition binding panel (468 kinase assays), per cent of control at 1000 nM.
Chain of HIPK3 (Q9H422 whole entry): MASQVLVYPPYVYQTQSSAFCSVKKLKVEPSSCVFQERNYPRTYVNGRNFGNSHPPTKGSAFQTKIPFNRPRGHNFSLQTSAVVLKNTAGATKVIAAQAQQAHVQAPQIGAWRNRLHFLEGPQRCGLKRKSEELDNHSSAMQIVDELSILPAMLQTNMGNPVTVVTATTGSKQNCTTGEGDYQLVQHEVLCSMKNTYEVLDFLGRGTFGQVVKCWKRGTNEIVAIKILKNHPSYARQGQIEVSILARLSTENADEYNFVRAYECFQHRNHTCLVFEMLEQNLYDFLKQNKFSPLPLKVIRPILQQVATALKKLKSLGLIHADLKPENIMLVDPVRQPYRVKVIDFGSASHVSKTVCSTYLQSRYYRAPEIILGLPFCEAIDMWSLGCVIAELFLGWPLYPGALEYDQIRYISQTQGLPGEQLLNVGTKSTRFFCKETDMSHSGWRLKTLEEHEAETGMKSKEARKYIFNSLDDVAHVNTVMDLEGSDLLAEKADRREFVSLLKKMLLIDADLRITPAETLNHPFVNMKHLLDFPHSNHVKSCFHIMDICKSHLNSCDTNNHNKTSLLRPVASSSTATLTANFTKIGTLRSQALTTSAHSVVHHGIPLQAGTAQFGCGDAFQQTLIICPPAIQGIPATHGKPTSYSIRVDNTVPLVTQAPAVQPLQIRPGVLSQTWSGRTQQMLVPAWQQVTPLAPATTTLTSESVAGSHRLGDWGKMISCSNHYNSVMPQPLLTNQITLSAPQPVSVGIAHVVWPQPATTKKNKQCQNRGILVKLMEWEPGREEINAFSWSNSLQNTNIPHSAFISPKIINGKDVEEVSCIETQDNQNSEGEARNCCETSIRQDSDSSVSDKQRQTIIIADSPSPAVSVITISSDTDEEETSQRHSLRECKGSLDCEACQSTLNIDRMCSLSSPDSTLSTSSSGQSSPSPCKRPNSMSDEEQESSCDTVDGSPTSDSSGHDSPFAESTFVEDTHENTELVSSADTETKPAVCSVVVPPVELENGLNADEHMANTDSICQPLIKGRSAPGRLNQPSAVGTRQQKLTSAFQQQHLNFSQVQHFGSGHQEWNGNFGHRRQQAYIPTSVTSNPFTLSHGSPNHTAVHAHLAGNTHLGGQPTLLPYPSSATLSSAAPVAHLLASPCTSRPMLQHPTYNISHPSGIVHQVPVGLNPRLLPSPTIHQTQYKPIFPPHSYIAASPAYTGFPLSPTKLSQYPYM
Excerpt: as §3

Data set [10] addresses FLT1 (Homo sapiens, UniProt P17948). The data set is described as follows: biochemical. Further details: KINOMEscan active-site competition binding panel (468 kinase assays), per cent of control at 1000 nM. As to conditions: KINOMEscan per cent of control (binding competition); read-out: Percent Control.
Excerpt: as §3

“Also recorded” adds a separate entry of the source.

Chain of FLT1 (P17948 whole entry): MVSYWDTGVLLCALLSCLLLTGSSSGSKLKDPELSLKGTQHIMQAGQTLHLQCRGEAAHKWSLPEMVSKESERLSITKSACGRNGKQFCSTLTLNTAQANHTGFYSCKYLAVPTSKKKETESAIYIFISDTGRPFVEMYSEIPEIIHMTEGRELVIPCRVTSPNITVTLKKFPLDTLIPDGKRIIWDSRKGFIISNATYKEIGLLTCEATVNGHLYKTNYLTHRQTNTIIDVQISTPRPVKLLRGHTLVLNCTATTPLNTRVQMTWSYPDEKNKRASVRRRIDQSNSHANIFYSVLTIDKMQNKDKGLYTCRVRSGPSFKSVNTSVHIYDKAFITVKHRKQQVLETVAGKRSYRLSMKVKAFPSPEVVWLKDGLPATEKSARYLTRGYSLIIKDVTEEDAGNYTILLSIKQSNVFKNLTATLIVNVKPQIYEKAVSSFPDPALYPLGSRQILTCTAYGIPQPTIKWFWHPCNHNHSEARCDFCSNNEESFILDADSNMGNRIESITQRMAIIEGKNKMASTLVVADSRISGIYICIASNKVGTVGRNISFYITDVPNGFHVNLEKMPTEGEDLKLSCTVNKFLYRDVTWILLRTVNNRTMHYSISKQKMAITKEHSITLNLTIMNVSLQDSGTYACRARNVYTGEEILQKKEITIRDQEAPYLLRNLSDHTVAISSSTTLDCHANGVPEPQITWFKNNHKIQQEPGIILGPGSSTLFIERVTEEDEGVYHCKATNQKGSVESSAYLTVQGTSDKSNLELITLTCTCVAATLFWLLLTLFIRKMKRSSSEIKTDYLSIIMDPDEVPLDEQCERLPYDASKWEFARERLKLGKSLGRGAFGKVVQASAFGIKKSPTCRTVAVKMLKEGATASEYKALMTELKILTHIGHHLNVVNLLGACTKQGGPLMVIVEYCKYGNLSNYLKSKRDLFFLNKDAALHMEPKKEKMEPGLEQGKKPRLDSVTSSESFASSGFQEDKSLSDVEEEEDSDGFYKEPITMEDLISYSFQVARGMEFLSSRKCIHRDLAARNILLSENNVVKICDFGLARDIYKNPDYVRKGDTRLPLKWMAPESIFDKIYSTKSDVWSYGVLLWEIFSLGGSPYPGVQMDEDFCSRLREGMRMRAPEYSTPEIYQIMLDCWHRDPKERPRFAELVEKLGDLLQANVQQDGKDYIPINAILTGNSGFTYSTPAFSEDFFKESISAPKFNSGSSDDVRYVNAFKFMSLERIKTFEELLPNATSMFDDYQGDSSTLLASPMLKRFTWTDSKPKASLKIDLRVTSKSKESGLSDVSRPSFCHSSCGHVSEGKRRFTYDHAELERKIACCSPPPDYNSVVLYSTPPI

For the compound `Cn1c(=O)[nH]c2ccc(-c3cccc(C(=O)NC4CCn5ccnc5C4)c3)cc21` (centres unmarked) [Z36-MP5], the “effectiveness after neutralization of CD8 T cells” value in data set [1] was “completely abolished the effectiveness”. Moreover, in [2] (B16F10 graft, MS177 100 mg/kg 5 days, then anti-PD-1 with Z36-MP5 or vehicle), the “treatment effect in mice treated with MS177 to inhibit EZH2” value is “No treatment effects were detected”. For the same compound, in data set [2] (Z36-MP5 30 mg/kg/day accompanied by anti-PD-1), the “effect on tumors generated from Mi-2β-null cells” value is listed as “No detectable inhibitory effect”. In [3], the “tolerability (mouse weight, organ tissue histological staining)” value is recorded as “tolerated without significant toxicity”. For the same compound, the “estimated highest blood concentration in mice” value in data set [4] was “around 0.97 mM”. Moreover, the “sensitivity of Mi-2β H727A mutant to inhibitor” value in data set [5] is “no longer sensitive; also recorded: histidine 727 of Mi-2β dependent”. In addition, in data set [6], the “killing potential of T cells” value is listed as “not significantly inhibited”. The “activity against 468 kinases” value in [7] is on record as “extremely high kinase selectivity; also recorded: not significantly active on any targets tested”. The remaining binding at 1 µM in [8] came out at 61%; in data set [9] it was 61%; in [10], 95%.

The values are drawn from publication PMC10924921, “Mi-2β promotes immune evasion in melanoma by activating EZH2 methylation” (Nature Communications, 2024).
